Results taken from the supplement of paper PMC9663587.

How the values were obtained:
THZ531 = compound: CN(C)C/C=C/C(=O)Nc1ccc(C(=O)N2CCC[C@@H](Nc3ncc(Cl)c(-c4c[nH]c5ccccc45)n3)C2)cc1 [THZ531]; assay: increase in dead-cell fraction, 72 h; higher = more death;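 note: breast cancer cell lines in 384-well plates, stained with Hoechst plus LIVE/DEAD far red dye and imaged, cells above an LDR intensity threshold counted dead, Hoechst-negative corpses included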
LEE011/Ribociclib [1] = compound: T1, CN(C)C(=O)c1cc2cnc(Nc3ccc(N4CCNCC4)cn3)nc2n1C1CCCC1 [LEE011/Ribociclib]; assay: as above
THZ1 = compound: CN(C)C/C=C/C(=O)Nc1ccc(C(=O)Nc2cccc(Nc3ncc(Cl)c(-c4c[nH]c5ccccc45)n3)c2)cc1 [THZ1]; assay: as above
YKL-5-124 = compound: C=CC(=O)Nc1ccc(C(=O)Nc2[nH]nc3c2CN(C(=O)N[C@H](CN(C)C)c2ccccc2)C3(C)C)cc1 [YKL-5-124]; assay: as above
Flavopiridol = compound: CN1CC[C@H](c2c(O)cc(O)c3c(=O)cc(-c4ccccc4Cl)oc23)[C@H](O)C1 [Flavopiridol]; assay: as above
BSJ-03-123 = compound: CC(=O)c1c(C)c2cnc(Nc3ccc(N4CCN(CCOCCOCCOCCNC(=O)COc5cccc6c5C(=O)N(C5CCC(=O)NC5=O)C6=O)CC4)cn3)nc2n(C2CCCC2)c1=O [BSJ-03-123]; assay: as above
LEE011/Ribociclib [2] = compound: T1, LEE011/Ribociclib
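Throughout, for GR50, 72 h: breast cancer and non-malignant breast epithelial cell lines, Deep Dye Drop or Dye Drop imaging, nine half-log doses, GR normalized to time-zero plates and DMSO-only controls.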

With MCF10A (GM) the “increase in dead-cell fraction” value (THZ531; 0.0001 µM) was 0.0026, the “increase in dead-cell fraction” value (THZ531; 0.0003162 µM) was 0.0015 and the “increase in dead-cell fraction” value (THZ531; 0.001 µM) was -0.0008. For the same cell line, the “increase in dead-cell fraction” value (THZ531; 0.003162 µM) was -0.0019, the “increase in dead-cell fraction” value (THZ531; 0.01 µM) was 0.0006 and the “increase in dead-cell fraction” value (THZ531; 0.03162 µM) was 0.0017. The “increase in dead-cell fraction” value (THZ531; 0.1 µM) was 0.0028, the “increase in dead-cell fraction” value (THZ531; 0.3162 µM) was 0.0137 and the “increase in dead-cell fraction” value (THZ531; 1 µM) was 0.62. For the same cell line, the “increase in dead-cell fraction” value (LEE011/Ribociclib [1]; 0.001 µM) was 0.0013, the “increase in dead-cell fraction” value (LEE011/Ribociclib [1]; 0.003162 µM) was 0.0004 and the “increase in dead-cell fraction” value (LEE011/Ribociclib [1]; 0.01 µM) was 0.002. The “increase in dead-cell fraction” value (LEE011/Ribociclib [1]; 0.03162 µM) was 0.0019, the “increase in dead-cell fraction” value (LEE011/Ribociclib [1]; 0.1 µM) was 0.0026 and the “increase in dead-cell fraction” value (LEE011/Ribociclib [1]; 0.3162 µM) was 0.0035. For the same cell line, the “increase in dead-cell fraction” value (LEE011/Ribociclib [1]; 1 µM) was 0.0035, the “increase in dead-cell fraction” value (LEE011/Ribociclib [1]; 3.162 µM) was 0.0073 and the “increase in dead-cell fraction” value (LEE011/Ribociclib [1]; 10 µM) was 0.0229. The “increase in dead-cell fraction” value (THZ1; 0.0001 µM) was -0.0002, the “increase in dead-cell fraction” value (THZ1; 0.0003162 µM) was -0.0005 and the “increase in dead-cell fraction” value (THZ1; 0.001 µM) was -0.0015. For the same cell line, the “increase in dead-cell fraction” value (THZ1; 0.003162 µM) was 0.0003, the “increase in dead-cell fraction” value (THZ1; 0.01 µM) was 0.0067 and the “increase in dead-cell fraction” value (THZ1; 0.03162 µM) was 0.127. For the same cell line, the “increase in dead-cell fraction” value (THZ1; 0.1 µM) was 0.225, the “increase in dead-cell fraction” value (THZ1; 0.3162 µM) was 0.256 and the “increase in dead-cell fraction” value (THZ1; 1 µM) was 0.61. For the same cell line, the “increase in dead-cell fraction” value (YKL-5-124; 0.001 µM) was 0.22, the “increase in dead-cell fraction” value (YKL-5-124; 0.003162 µM) was 0.329 and the “increase in dead-cell fraction” value (YKL-5-124; 0.01 µM) was 0.363. The “increase in dead-cell fraction” value (YKL-5-124; 0.03162 µM) was 0.249, the “increase in dead-cell fraction” value (YKL-5-124; 0.1 µM) was 0.226 and the “increase in dead-cell fraction” value (YKL-5-124; 0.3162 µM) was 0.293. For the same cell line, the “increase in dead-cell fraction” value (YKL-5-124; 1 µM) was 0.263, the “increase in dead-cell fraction” value (YKL-5-124; 3.162 µM) was 0.218 and the “increase in dead-cell fraction” value (YKL-5-124; 10 µM) was 0.391. For the same cell line, the “increase in dead-cell fraction” value (Flavopiridol; 0.0001 µM) was -0.0007, the “increase in dead-cell fraction” value (Flavopiridol; 0.0003162 µM) was -0.0019 and the “increase in dead-cell fraction” value (Flavopiridol; 0.001 µM) was -0.0004. The “increase in dead-cell fraction” value (Flavopiridol; 0.003162 µM) was -0.0003, the “increase in dead-cell fraction” value (Flavopiridol; 0.01 µM) was 0.0027 and the “increase in dead-cell fraction” value (Flavopiridol; 0.03162 µM) was 0.0152. The “increase in dead-cell fraction” value (Flavopiridol; 0.1 µM) was 0.0701, the “increase in dead-cell fraction” value (Flavopiridol; 0.3162 µM) was 0.491 and the “increase in dead-cell fraction” value (Flavopiridol; 1 µM) was 0.66. For the same cell line, the “increase in dead-cell fraction” value (BSJ-03-123; 0.001 µM) was 0.0019, the “increase in dead-cell fraction” value (BSJ-03-123; 0.003162 µM) was -0.0004 and the “increase in dead-cell fraction” value (BSJ-03-123; 0.01 µM) was 0.0026. For the same cell line, the “increase in dead-cell fraction” value (BSJ-03-123; 0.03162 µM) was 0.0037, the “increase in dead-cell fraction” value (BSJ-03-123; 0.1 µM) was 0.0042 and the “increase in dead-cell fraction” value (BSJ-03-123; 0.3162 µM) was 0.0033. For the same cell line, the “increase in dead-cell fraction” value (BSJ-03-123; 1 µM) was 0.0209, the “increase in dead-cell fraction” value (BSJ-03-123; 3.162 µM) was 0.0255 and the “increase in dead-cell fraction” value (BSJ-03-123; 10 µM) was 0.455. For the same cell line, the “GR50, 72 h” value (LEE011/Ribociclib [2]) was > 10 µM.
